# Test results from US20110182916A1, “Use of Agonists of Integrin Alpha 5 for Inducing the Osteogenic Differentiation of Mesenchymal Stem Cells” (priority 2008, published 2011).
# Where no end group is shown, it is not given here.
# What was measured:
# LV-ITGA5-infected hMSCs = format: cell-based, human
# Experimental: To this goal, proteins collected from hMSCs infected with LV-ITGA5 were analysed by western blot analysis.
# Legend: Osteoblast differentiation by ITGA5 involves ERK1/2 signalling.
# ITGA5 in hMSCs = assay: ITGA5 protein level by Western blot; format: cell-based, human; settings: dexamethasone 10^-7 M
# Experimental: For Western blot analysis, cells lysates were prepared as previously described (FROMIGUE et al. Cell Death Differ. 13, 1845-56, 2006). Briefly, proteins (30 μg) were resolved on 4-12% SDS-PAGE and electrotransfered onto […] membranes (Millipore Corporation, Bedford, USA). Filters were incubated at RT for 2 h in 50 mM Tris/HCl (pH 7.4), 150 mM NaCl, 0.1% (v/v) Tween-20, 0.5% (w/v) bovine serum albumin (TBST/BSA), then overnight at 4° C. on a shaker with specific primary antibodies diluted at 1/1000 in TBST/BSA: monoclonal antibody against the housekeeping gene GAPDH (Abeam Cambridge, UK), and rabbit polyclonal antibody directed against ITGA5 was Santa Cruz Biotechnology (Santa Cruz, Calif., USA). Membranes were washed twice with TBST and incubated for 2 hours with appropriate HRP-conjugated secondary antibody (1/20,000 in TBST/BSA). After final washes, the signals were visualized with enhanced chemiluminescence western blotting detection reagent (ECL, Amersham Biosciences, Piscataway, N.J., USA) and autoradiographic film (X-OMAT-AR, Eastman Kodak Company, Rochester, N.Y., USA). Densitometric analysis using ImageQuant software was performed following digital scanning (Agfa).
# ITGA5 in primary hMSCs = assay: ITGA5 mRNA expression by quantitative RT-PCR; format: cell-based, human; settings: dexamethasone 10^-7 M, day 1 and 3, primary hMSCs
# hMSCs = assay: Osteoblast marker mRNA (Runx2, ALP, Col1A1) by quantitative RT-PCR; format: cell-based; settings: CRRETAWAC 100 μg/ml, 24 h, human MSCs
# Experimental: The expression of mRNA markers of the osteoblast lineage (Runx2, ALP, type 1 collagen) was evaluated by quantitative RT-PCR. Total RNAs were isolated using Trizol reagent (Laboratoires Eurobio, France) according to the manufacturer's instructions. Three μg of total RNA from each sample were reverse transcribed using MMLV reverse transcriptase and oligodT primers, at 37° C. for 90 min. The relative mRNA levels were evaluated by quantitative PCR using LightCycler Instrument (Roche Applied Science, Indianapolis Ind., USA) and SYBR Green PCR kit (ABGen, Courtabceuf, France). Triplicate reactions were carried out for each sample. Signal was normalized to 18S as internal control.
# clonal F/STRO1+A cells = assay: ALP activity by staining in clonal cells; format: cell-based, human; settings: coating with 100 μg/ml CRRETAWAC
# From the text: F/STRO1^+A cells were derived from human fetal bone marrow stroma, selected for Stro1 antigen expression, immortalized using the large T SV40 and subsequently subcloned (OYAJOBI et al., J Bone Miner Res, 14, 351-61, 1999). This clonal human bone marrow stromal cell line express mRNA markers or protein of the osteoblast lineage (Runx2, OC, ALP, type 1 collagen), of the chondrocyte lineage (aggrecan, types 2, 9 and 10 collagen), and of the adipocyte lineage (PPARgamma2, C/EBPalpha, aP2, G3PDH, LPL, leptin) under basal conditions (AHDJOUDJ et al., J Cell Biochem, 81, 23-38, 2001).
# The activity of alkaline phosphatase, an early marker of osteoblast differentiation, was determined by a colorimetric assay as previously described (FROMIGUE et al., J Cell Biochem, 104, 620-8, 2008). ALP staining was performed using Sigma FAST kit according to the manufacturer's recommendations (Sigma). Cells were fixed in 75% ethanol, rinsed in PBS and incubated with the substrate buffer at 37° C.
# Legend: The synthetic cyclic peptide CRRETAWAC promotes osteoblast marker genes expression in hMSCs. A) Human MSCs were treated with CRRETAWAC at the dose of 100 μg/ml for 24 h, RNAs were collected and osteoblast markers were determined by qRT-PCR analysis. Results, after correction to 18S content, are expressed as mean±SD of treated over control ratio. […] Infection with LV-ITGA5 is shown for comparison.
compound,measurement,setting,value
N#CC(=C(/N)Sc1ccccc1N)/C(C#N)=C(\N)Sc1ccccc1N [U0126],increased expression of ALP induced by ITGA5 overexpression,LV-ITGA5-infected hMSCs,blunted
same,increased expression of Col1A1 induced by ITGA5 overexpression,LV-ITGA5-infected hMSCs,blunted
same,increased expression of Runx2 induced by ITGA5 overexpression,LV-ITGA5-infected hMSCs,blunted
C[C@@H]1C[C@H]2[C@@H]3CCC4=CC(=O)C=C[C@]4(C)[C@@]3(F)[C@@H](O)C[C@]2(C)[C@@]1(O)C(=O)CO [dexamethasone],"increase of ITGA5 protein levels, treated over control",ITGA5 in hMSCs,about 1.5 fold
same,"increase of ITGA5 expression (mRNA), treated over control",ITGA5 in primary hMSCs,2-3 fold
CRRETAWAC (also: cyclic),expression of osteoblast markers (mRNA),hMSCs,greatly increased
same,ALP activity (staining),clonal F/STRO1+A cells,increased
